The results in this text go back to US20070116825A1, “Confection with High-Potency Sweetener” (THE COCA-COLA COMPANY, priority 2005, published 2007).

Data set [1] can be described thus: Rate of dissolution in H2O at 25° C. of rebaudioside A polymorph and amorphous forms. Type of data set: physicochemical. From the text:
The purification of rebaudioside A by crystallization as described above results in the formation of at least three different polymorphs: Form 1: a rebaudioside A hydrate; Form 2: an anhydrous rebaudioside A; Form 3: a rebaudioside A solvate. In addition to the at least three polymorph forms of rebaudioside A, the purification of rebaudioside A may result in the formation of an amorphous form of rebaudioside A, Form 4. The aqueous organic solution and temperature of the purification process influence the resulting polymorph and amorphous forms in the substantially pure rebaudioside A composition. FIGS. 1-5 are exemplary powder x-ray diffraction (XRPD) scans of the polymorph and amorphous forms of rebaudioside A: Form 1 (hydrate), Form 2 (anhydrate), Form 3A (methanol solvate), Form 3B (ethanol solvate), and Form 4 (amorphous), respectively.

Data set [2] is classed as physicochemical. Here is the method: A solution of rebaudioside A (>97% pure by HPLC) was prepared in double distilled water (12.5 gm in 50 mL, 25% concentration) by stirring the mixture at 40° C. for 5 minutes. An amorphous form of rebaudioside A was formed by immediately using the clear solution for spray drying with the Lab-Plant spray drier SD-04 instrument (Lab-Plant Ltd., West Yorkshire, U.K.). The solution was fed through the feed pump into the nozzle atomizer which atomized it into a spray of droplets with the help of a constant flow of nitrogen/air. […] This dry powder (11-12 g, H2O 6.74%) was discharged continuously from the drying chamber and was collected in a bottle.

As to rebaudioside A [Form 2], the “Rate of dissolution in H2O at 25° C.” value in data set [1] (per 5 minutes) was “Intermediate (<30%/ %/5 minutes”.

For the substance rebaudioside A [Form 1], in data set [1] (per 60 minutes), the “Rate of dissolution in H2O at 25° C.” value is listed as “Very low (<0.2%/ %/60 minutes”.

As for rebaudioside A [Form 4], the “Rate of dissolution in H2O at 25° C.” value in data set [1] (per 5 minutes) is “High (>35%/5 %/5 minutes”. The “solubility in water at room temperature” value in data set [2] was > 35.0%.

As to rebaudioside A [Form 3], the “Rate of dissolution in H2O at 25° C.” value in data set [1] (per 5 minutes) is “High (>30%/5 %/5 minutes”.
